Numbers after ± are expanded uncertainties.
Experiments:
[1] = molar heat capacity at saturation pressure; details: Glass
[2] = Molar enthalpy of transition or fusion; details: Crystal
[3] = Crystal

CCCO [propan-1-ol]
[1]
Details	molar heat capacity [J/K/mol]
84.71 K	55.24 ± 0.3
86.52 K	56.57 ± 0.31
89.38 K	58.64 ± 0.32
92.19 K	61.1 ± 0.52
94.96 K	66.41 ± 0.53

Details	Molar enthalpy of transition or fusion [kcal/mol]	Triple point temperature [K]
[2]	1.291 ± 0.00526	–
[3]	–	148.71 ± 0.08

From the NIST ThermoML archive (doi:10.1021/je0499768)
